According to ChEMBL document CHEMBL3885861, “Open TG-GATES”:

Organism: Rattus norvegicus
Test: Open TG-GATES - Regimen: Daily Repeat
Type: toxicity, organism-based, Sprague-Dawley
Set-up: regimen Daily Repeat, gender Male, age 6 weeks
Settings: in vivo, po, 60 mg/kg, route gavage, dose level Middle; for APTT / Bas / Eos / Fbg / Hb / Ht / Lym / MCH / MCHC / MCV / Mono / Neu / PT / Plat / RBC / Ret / WBC: tissue Blood; for KIDNEY_L / KIDNEY_R / KIDNEY_TOTAL: tissue Kidney; for LIVER: tissue Liver; for A/G / ALP / ALT / AST / BUN / CRE / Ca / Cl / DBIL / GLC / IP / K / LDH / Na / PL / RALB / TBIL / TC / TG / TP / gamma-GTP: tissue Plasma

Cn1c(=O)c2[nH]cnc2n(C)c1=O.O [THEOPHYLLINE]
TERMINAL_BW (72 h, time 3 day): 242.6 g | APTT (72 h, time 3 day): 21.7 s | Bas (72 h, time 3 day): 0% | Eos (72 h, time 3 day): 0.6% | Fbg (72 h, time 3 day): 303.4 mg/dL | Hb (72 h, time 3 day): 13.4 g/dL | Ht (72 h, time 3 day): 40.4% | Lym (72 h, time 3 day): 78.4% | MCH (72 h, time 3 day): 20.8 pg | MCHC (72 h, time 3 day): 33.2% | MCV (72 h, time 3 day): 62.8 fL | Mono (72 h, time 3 day): 3.2% | Neu (72 h, time 3 day): 16.4% | PT (72 h, time 3 day): 15.5 s | Plat (72 h, time 3 day): 123.5 x10_4/uL | RBC (72 h, time 3 day): 644.2 x10_4/ul | Ret (72 h, time 3 day): 7.4% | WBC (72 h, time 3 day): 126 x10_2/uL | KIDNEY_L (72 h, time 3 day): 1 g | KIDNEY_R (72 h, time 3 day): 1.1 g | KIDNEY_TOTAL (72 h, time 3 day): 2.1 g | LIVER (72 h, time 3 day): 10.8 g | A/G (72 h, time 3 day): 1.2 | ALP (72 h, time 3 day): 1599.4 IU/L | ALT (72 h, time 3 day): 44.2 IU/L | AST (72 h, time 3 day): 69.2 IU/L | BUN (72 h, time 3 day): 14.8 mg/dL | CRE (72 h, time 3 day): 0.2 mg/dL | Ca (72 h, time 3 day): 10.7 mg/dL | Cl (72 h, time 3 day): 106.2 meq/L | DBIL (72 h, time 3 day): 0 mg/dL | GLC (72 h, time 3 day): 186 mg/dL | IP (72 h, time 3 day): 8.4 mg/dL | K (72 h, time 3 day): 4.2 meq/L | LDH (72 h, time 3 day): 146.6 IU/L | Na (72 h, time 3 day): 142 meq/L | PL (72 h, time 3 day): 132.8 mg/dL | RALB (72 h, time 3 day): 2.9 g/dL | TBIL (72 h, time 3 day): 0.004 mg/dL | TC (72 h, time 3 day): 80.4 mg/dL | TG (72 h, time 3 day): 75 mg/dL | TP (72 h, time 3 day): 5.3 g/dL | gamma-GTP (72 h, time 3 day): 1.4 IU/L | TERMINAL_BW ([…], time 7 day): 265.8 g | TERMINAL_BW ([…], time 14 day): 313.9 g | TERMINAL_BW ([…], time 28 day): 384.1 g | APTT ([…], time 7 day): 23.4 s | Bas ([…], time 7 day): 0% | Eos ([…], time 7 day): 0.8% | Fbg ([…], time 7 day): 299.4 mg/dL | Hb ([…], time 7 day): 13.9 g/dL | Ht ([…], time 7 day): 40.6% | Lym ([…], time 7 day): 79% | MCH ([…], time 7 day): 21.2 pg | MCHC ([…], time 7 day): 34.2% | MCV ([…], time 7 day): 61.9 fL | Mono ([…], time 7 day): 2.8% | Neu ([…], time 7 day): 16.2% | PT ([…], time 7 day): 15.4 s | Plat ([…], time 7 day): 109.7 x10_4/uL | RBC ([…], time 7 day): 655.8 x10_4/ul | Ret ([…], time 7 day): 5.4% | WBC ([…], time 7 day): 123.4 x10_2/uL | APTT ([…], time 14 day): 24.1 s | Bas ([…], time 14 day): 0% | Eos ([…], time 14 day): 0.8% | Fbg ([…], time 14 day): 336.8 mg/dL | Hb ([…], time 14 day): 14.5 g/dL | Ht ([…], time 14 day): 42.9% | Lym ([…], time 14 day): 77.8% | MCH ([…], time 14 day): 20.6 pg | MCHC ([…], time 14 day): 33.9% | MCV ([…], time 14 day): 60.7 fL | Mono ([…], time 14 day): 2.4% | Neu ([…], time 14 day): 18% | PT ([…], time 14 day): 15.1 s | Plat ([…], time 14 day): 109.2 x10_4/uL | RBC ([…], time 14 day): 706.4 x10_4/ul | Ret ([…], time 14 day): 4.9% | WBC ([…], time 14 day): 119.3 x10_2/uL | APTT ([…], time 28 day): 25.6 s | Bas ([…], time 28 day): 0% | Eos ([…], time 28 day): 1% | Fbg ([…], time 28 day): 330.2 mg/dL | Hb ([…], time 28 day): 15.8 g/dL | Ht ([…], time 28 day): 45.7% | Lym ([…], time 28 day): 78% | MCH ([…], time 28 day): 19.8 pg | MCHC ([…], time 28 day): 34.5% | MCV ([…], time 28 day): 57.3 fL | Mono ([…], time 28 day): 3% | Neu ([…], time 28 day): 16.8% | PT ([…], time 28 day): 15.6 s | Plat ([…], time 28 day): 99.5 x10_4/uL | RBC ([…], time 28 day): 798 x10_4/ul | Ret ([…], time 28 day): 3.3% | WBC ([…], time 28 day): 104.8 x10_2/uL | KIDNEY_L ([…], time 7 day): 1.2 g | KIDNEY_R ([…], time 7 day): 1.2 g | KIDNEY_TOTAL ([…], time 7 day): 2.4 g | KIDNEY_L ([…], time 14 day): 1.3 g | KIDNEY_R ([…], time 14 day): 1.3 g | KIDNEY_TOTAL ([…], time 14 day): 2.6 g | KIDNEY_L ([…], time 28 day): 1.5 g | KIDNEY_R ([…], time 28 day): 1.5 g | KIDNEY_TOTAL ([…], time 28 day): 3 g | LIVER ([…], time 7 day): 11.6 g | LIVER ([…], time 14 day): 13.8 g | LIVER ([…], time 28 day): 16.3 g | A/G ([…], time 7 day): 1.2 | ALP ([…], time 7 day): 1497.8 IU/L | ALT ([…], time 7 day): 42.2 IU/L | AST ([…], time 7 day): 77.6 IU/L | BUN ([…], time 7 day): 17.6 mg/dL | CRE ([…], time 7 day): 0.2 mg/dL | Ca ([…], time 7 day): 10.4 mg/dL | Cl ([…], time 7 day): 107 meq/L | DBIL ([…], time 7 day): 0 mg/dL | GLC ([…], time 7 day): 195.4 mg/dL | IP ([…], time 7 day): 7.8 mg/dL | K ([…], time 7 day): 4.3 meq/L | LDH ([…], time 7 day): 175.4 IU/L | Na ([…], time 7 day): 142.2 meq/L | PL ([…], time 7 day): 140.2 mg/dL | RALB ([…], time 7 day): 3 g/dL | TBIL ([…], time 7 day): 0.006 mg/dL | TC ([…], time 7 day): 72 mg/dL | TG ([…], time 7 day): 86.8 mg/dL | TP ([…], time 7 day): 5.6 g/dL | gamma-GTP ([…], time 7 day): 1.6 IU/L | A/G ([…], time 14 day): 1.1 | ALP ([…], time 14 day): 1338.2 IU/L | ALT ([…], time 14 day): 43 IU/L | AST ([…], time 14 day): 73.8 IU/L | BUN ([…], time 14 day): 17 mg/dL | CRE ([…], time 14 day): 0.2 mg/dL | Ca ([…], time 14 day): 10.3 mg/dL | Cl ([…], time 14 day): 105.6 meq/L | DBIL ([…], time 14 day): 0 mg/dL | GLC ([…], time 14 day): 181 mg/dL | IP ([…], time 14 day): 8 mg/dL | K ([…], time 14 day): 4.1 meq/L | LDH ([…], time 14 day): 178 IU/L | Na ([…], time 14 day): 142.2 meq/L | PL ([…], time 14 day): 143.4 mg/dL | RALB ([…], time 14 day): 3.1 g/dL | TBIL ([…], time 14 day): 0.006 mg/dL | TC ([…], time 14 day): 79 mg/dL | TG ([…], time 14 day): 83.6 mg/dL | TP ([…], time 14 day): 5.8 g/dL | gamma-GTP ([…], time 14 day): 2.2 IU/L | A/G ([…], time 28 day): 1.1 | ALP ([…], time 28 day): 1071.4 IU/L | ALT ([…], time 28 day): 40.8 IU/L | AST ([…], time 28 day): 67.8 IU/L | BUN ([…], time 28 day): 16.2 mg/dL | CRE ([…], time 28 day): 0.2 mg/dL | Ca ([…], time 28 day): 10.3 mg/dL | Cl ([…], time 28 day): 106 meq/L | DBIL ([…], time 28 day): 0 mg/dL | GLC ([…], time 28 day): 189.8 mg/dL | IP ([…], time 28 day): 7.4 mg/dL | K ([…], time 28 day): 4.1 meq/L | LDH ([…], time 28 day): 137.6 IU/L | Na ([…], time 28 day): 143.2 meq/L | PL ([…], time 28 day): 135.8 mg/dL | RALB ([…], time 28 day): 3.2 g/dL | TBIL ([…], time 28 day): 0.024 mg/dL | TC ([…], time 28 day): 71.2 mg/dL | TG ([…], time 28 day): 97.4 mg/dL | TP ([…], time 28 day): 6.1 g/dL | gamma-GTP ([…], time 28 day): 1.8 IU/L
